How the values were obtained:
[1] = Oxygen radical absorbance capacity (ORAC) assay; conditions: Table S6; per mM compound
Procedure: Trolox (positive control) was prepared at 2 mM in MeOH then serially diluted into ten concentrations 1000, 800, 700, 600, 500, 400, 300, 200, 100, and 50 μM for the concentration–response curve construction. The total extract and DCM fractions were made at 0.2 mg/mL in methanol, 100% and 50% were prepared at 0.05 mg/mL in methanol, while quercetin rhamnoside was prepared at a concentration of 0.225 mM in methanol. The assay was carried out using Liang et al.’s (2014) methodology, with minor modifications. In brief, 10 μL of the prepared samples were allowed to sit at 37 °C for 10 min with […] of fluoresceine (100 nM). For the background measurement, fluorescence measurements (485 EX, 520 EM, nm) were carried out three times for a total of 90 s each (range 1, Figure 1). Then, 70 μL of freshly made 2,2′-Azobis (2-amidinopropane) dihydrochloride (AAPH) (300 mM) was added to each well. For 60 min (40 cycles, each lasting 90 sec), the measurement of fluorescence (485 EX, 520 EM, nm) was maintained. The antioxidant impact of the samples was determined as the μM Trolox equivalent using the linear regression equation, and the data are shown as means (n = 3) SD.

[2] = Ferric reducing antioxidant power (FRAP) assay
Procedure: The samples were made in a mixture of methanol: DMSO (10:1) at a concentration of 2 mg/mL, while quercetin rhamnoside was made at a concentration of 0.9 mM. To produce the concentration–response curve, seven concentrations, including 7.812, 15.625, 31.25, 62.5, 125, 250, and 500 µM, were created from a stock solution of 1000 µM concentration of ascorbic acid, the positive control. According to the procedure of Benzie et al., this assay was conducted with minor modifications. It depends on Fe^3+ reduction into Fe^2+ which forms a colored complex with 2,4,6-tris (2-pyridyl)-s-[…] (TPTZ). In brief, in a 96-well plate (n = 3), […] of the sample was combined with […] of freshly made TPTZ reagent (300 mM acetate buffer (pH = 3.6), 10 mM TPTZ in 40 mM HCl, and 20 mM FeCl3, in that order; respectively). The reaction was then allowed to run at room temperature for 30 min while kept in a dark place, and the absorbance was measured at 593 nm. Data are shown as means ± SD [26]. […]

[3] = ABTS assay; conditions: for % inhibition: standard curve (Figure S11)
Procedure: In brief, the production of the ABTS radical cation (ABTS•+) involved mixing 5 mL of ABTS aqueous solution (7 mM) with […] of potassium persulfate (140 mM) while the mixture was left at room temperature for 16 h in the dark. […] The absorbance was then measured at 690 nm using a microplate reader (Tecan, USA). According to the following equation, data are shown as means (n = 3) SD:% Inhibition = [(A blank - A sample)/A blank] × 100 Using the linear regression method, the antioxidant effect of the various samples was determined as μM ascorbic acid equivalent.

[4] = molecular target: T1, porcine pancreatic lipase (PPL) (Sus scrofa, UniProt P00591); test: Pancreatic lipase enzyme inhibition (p-NPD); assay type: biochemical
T1 sequence (P00591 1-450): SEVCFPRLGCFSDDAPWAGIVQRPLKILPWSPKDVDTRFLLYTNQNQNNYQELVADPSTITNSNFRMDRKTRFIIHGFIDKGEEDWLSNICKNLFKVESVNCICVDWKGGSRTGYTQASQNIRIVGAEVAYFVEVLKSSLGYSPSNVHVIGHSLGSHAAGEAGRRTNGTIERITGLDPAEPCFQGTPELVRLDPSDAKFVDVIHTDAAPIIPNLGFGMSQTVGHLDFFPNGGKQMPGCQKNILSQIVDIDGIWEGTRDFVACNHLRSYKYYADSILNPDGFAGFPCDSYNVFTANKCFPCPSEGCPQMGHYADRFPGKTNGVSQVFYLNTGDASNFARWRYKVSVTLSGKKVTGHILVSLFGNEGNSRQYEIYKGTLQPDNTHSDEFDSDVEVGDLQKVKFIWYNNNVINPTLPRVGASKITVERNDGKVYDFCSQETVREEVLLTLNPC
Procedure: P-nitrophenyl dodecanoate (p-NPD from Sigma Aldrich, St. Louis, MO, USA) was used as the substrate, and porcine pancreatic lipase (PPL) was prepared as previously stated by with minor modification. In sum, 25 μL of prepared samples along with a blank were first incubated with 50 µL of PPL (1 mg/mL) in a Tris-HCl buffer (100 mM, pH 8) for 10 min prior to detecting the PPL activity. Following the addition of […] of p-NPD (10 mM in isopropanol), the reaction was then incubated again at 37 °C for 20 min. using […] of Tris-HCl buffer as a volume diluent.

[5] = molecular target: T2, Saccharomyces cerevisiae α-glucosidase (Saccharomyces cerevisiae, UniProt P53341); test: α-glucosidase enzyme inhibition (pNPG, colorimetric); assay type: biochemical; conditions: pure compounds, read-out: IC50 (Mean ± SE)
T2 construct: purchased Sigma-Aldrich G5003-100UN
Procedure: Saccharomyces cerevisiae’s α-glucosidase was utilized (Sigma-Aldrich, St. Louis, MO, USA Cat#G5003-100UN). […] Seven concentrations, comprising 31.25, 62.5, 125, 250, 500, 750, and 1000 µM, were prepared from the buffer. […] Using p-nitrophenyl-D-glucopyranoside (pNPG) as a substrate, the inhibitory activity of α-Glucosidase was evaluated colorimetrically by applying the technique described by Gutiérrez-Grijalva et al. with minor modification. In 96-microwell plates, 25 μL of samples/blank were combined with 50 μL of S. cerevisiae α-glucosidase (0.6 U/mL) in phosphate buffer (0.1 M, pH 7) for 10 min at 37 °C. The mixture was then incubated once again for 5 min at 37 °C after the addition of 25 μL of 3 mM pNPG as a substrate in phosphate buffer (pH 7). Utilizing a microplate reader (Tecan, Männedorf, Switzerland) to measure the release of p-nitrophenol from the pNPG substrate at 405 nm, enzyme activity was ascertained [23]. After determining the absorbance (A), the inhibition % of -glucosidase was determined using the formula:% Inhibition = [(A blank − A sample)/A blank] × 100

[6] = Metal chelation assay (Ferrozine)
Procedure: Except for quercetin rhamnoside, all the samples were prepared at a concentration of 0.2 mg/mL in methanol. A stock solution of EDTA (positive control) was made at a concentration of 0.1 mM in water and serially diluted into seven concentrations (80, 70, 60, 50, 40, 20, and 10 μM) for the purpose of creating a concentration–response curve. The method described in [28] was used for the Ferrozine iron metal chelation test, with a few minor adjustments made for microplates. In brief, 50 μL of the sample or substance on a 96-well plate and 50 μL of acetate buffer pH = 6 (n = 6) were combined with 20 μL of newly produced ferrous sulphate (0.3 mM in acetate buffer pH = 6). Then, each well received 30 μL of Ferrozine (0.8 mM in acetate buffer, pH = 6). For 10 min, the reaction mixture was incubated at room temperature. At the completion of the incubation period, the FluoStar Omega microplate reader was used to measure the reduction in the intensity of the produced color. The following equation describes how data are expressed as means ± SD:% Inhibition = [(Average Absorbance of blank − Average Absorbance of Test)/Average Absorbance of blank] × 100
The samples’ antioxidant potential was calculated as μM EDTA equivalents using the linear regression equation.

T2 sequence (P53341 whole entry): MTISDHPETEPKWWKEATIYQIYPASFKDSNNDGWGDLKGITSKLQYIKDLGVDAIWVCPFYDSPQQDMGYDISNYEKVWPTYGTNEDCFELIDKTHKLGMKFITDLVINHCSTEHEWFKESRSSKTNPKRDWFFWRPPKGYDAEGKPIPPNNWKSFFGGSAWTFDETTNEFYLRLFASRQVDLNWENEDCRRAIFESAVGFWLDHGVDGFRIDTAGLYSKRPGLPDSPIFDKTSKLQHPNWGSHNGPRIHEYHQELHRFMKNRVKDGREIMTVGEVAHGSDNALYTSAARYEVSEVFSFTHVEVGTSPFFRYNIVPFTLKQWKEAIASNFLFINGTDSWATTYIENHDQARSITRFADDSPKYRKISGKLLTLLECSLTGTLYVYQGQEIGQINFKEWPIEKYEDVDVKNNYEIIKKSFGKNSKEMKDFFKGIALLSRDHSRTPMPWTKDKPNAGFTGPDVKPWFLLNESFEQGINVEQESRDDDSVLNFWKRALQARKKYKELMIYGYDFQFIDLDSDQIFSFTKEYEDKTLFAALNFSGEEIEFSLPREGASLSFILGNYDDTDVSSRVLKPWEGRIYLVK

## CC1OC(Oc2c(-c3ccc(O)c(O)c3)oc3cc(O)cc(O)c3c2=O)C(O)C(O)C1O (stereo not drawn) [Quercetin-3-rhamnoside, quercetin-3-O-α-rhamnoside]
[1]
  Antioxidant activity using ORAC assay: 25258.39 µMT eq/mM
[2]; Table S5, FRAP
  Trolox equivalent per mM sample: 1681.23 µM TE/mM sample
[2]; per mM compound
  FRAP antioxidant activity, Trolox equivalent: 1681.2 ± 49.9 μmolar TE/mM
[3]; per mM compound
  ABTS antioxidant activity, ascorbic acid equivalent: 1338.1 ± 81.38 μM AAE/mM
[4]; 500 µM, read-out: % Inhibition (Mean ± SD)
  inhibition at 500 µM: 19.1 ± 0.34%
[4]; pure compounds, read-out: IC50 (µM) (Mean ± SE)
  IC50: > 500 µM
[5]
  IC50: 126.4 ± 1.04 µM
[6]; Table S7
  EDTA equivalent per mM sample: 377.98 µM eq/ mM sample
[6]; per mM compound
  Metal chelation activity, EDTA equivalent: 377.98 ± 10.17 μmolar EDTAE/mM

## O=C1O[C@H]([C@@H](O)CO)C(O)=C1O [ascorbic acid]
[3]; 7.8125 µM
  % inhibition: 2.8930%
[3]; 15.625 µM
  % inhibition: 3.7803%
[3]; 31.25 µM
  % inhibition: 5.5156%
[3]; 62.5 µM
  % inhibition: 9.7291%
[3]; 125 µM
  % inhibition: 16.88%
[3]; 250 µM
  % inhibition: 33.5451%
[3]; 500 µM
  % inhibition: 62.86%

— paper PMC10675073, “Effect of Phenolics from Aeonium arboreum on Alpha Glucosidase, Pancreatic Lipase, and Oxidative Stress; a Bio-Guided Approach” (Pharmaceutics, 2023)
